Assay results taken from PMC4536076, “Chemical Library Screening and Structure-Function Relationship Studies Identify Bisacodyl as a Potent and Selective Cytotoxic Agent Towards Quiescent Human Glioblastoma Tumor Stem-Like Cells” (PLoS ONE, 2015).
Structures can show the parent of a compound that is named as a salt. Where two headings read alike, the source gives them in different places.

What was measured:
[1] = tested on: fetal neural stem cells (f-NSC); assay: ATP-Glo dose-response, fetal neural stem cells; assay type: cell-based; conditions: Homo sapiens, Neural stem cell; ATP Glo readout, 24 h treatment
proliferating TG1 GSCs [2] = conditions: primary screen, 50 μM, 24 h
Description: (§1) Proliferating or quiescent TG1 GSCs were seeded (30 000 and 40 000 viable cells/well, respectively) into 96-well opaque bottom plates (Greiner) with the Biomek FX robot (Beckman Coulter). Each compound from the Prestwick Library was then added (final concentration: 50 μM; 1% DMSO). Each molecule was tested once. Negative control wells (12/96 per assay plate) contained cells treated with 1% DMSO (final concentration) and positive control wells (4/96 per assay plate) contained cells treated with the fungal toxin ophiobolin A (Sigma Aldrich) at 50 μM with 1% DMSO. […] Luminescence in each well was measured with the Victor3 plate reader (PerkinElmer).
(§2) Relative ATP levels in each well were determined by calculating the percentage of luminescent signal in the well with respect to the average signal measured in negative control wells.
(§3) Primary screen hits were further tested in duplicate, at two concentrations (50 and 5 μM) on proliferating and quiescent TG1 GSCs. Cell plating and treatment with compounds were as for the primary screen. Hit selection/confirmation criteria for quiescent cells were as described above.

proliferating TG1 GSCs [3] = assay: ATP-Glo dose-response, proliferating TG1 GSCs; assay type: cell-based, human; conditions: for EC50: Homo sapiens
Description: (§4) The EC50 value was determined for each compound by fitting the data points according to the following equation: y=Smax+Smin*(x*1/EC50)^n/1+(x*1/EC50)^n where y represents the expected response, x is the chemical compound concentration, S max and S min are the maximum and minimum responses recorded, respectively and n is the Hill coefficient. Curve fitting was performed using Microsoft Excel Solver component.
(§5) Proliferating or quiescent TG1 cells were seeded in 50 μL of their respective media (30 000 and 40 000 viable cells/well, respectively) into 96-well opaque bottom plates (Greiner, Courtaboeuf, France). Compound treatment was performed by adding 50 μL of compound solutions (in the presence of 2% DMSO in culture medium). […] All compounds were tested in triplicate in each experiment. Independent experiments were performed at least twice for almost all of the compounds.

quiescent TG1 GSCs [4] = assay: ATP-Glo dose-response, quiescent TG1 GSCs; assay type: cell-based, human; conditions: for EC50: Homo sapiens; for fold increase in EC50 (activity decrease) compared to DDPM (compound 2): quiescent TG1 GSCs
Description: as §4, §5

proliferating TG16 GSCs = assay: ATP-Glo dose-response, proliferating TG16 GSCs; assay type: cell-based, human; conditions: ATP Glo readout, 24 h treatment, read-out: P TG16 GSCs EC50
Description: as §4
(§6) Similar dose response curves were performed using GSCs isolated from GBM of two other patients (TG16 and OB1 GSCs) grown under proliferating and quiescent conditions.

quiescent TG16 GSCs = assay: ATP-Glo dose-response, quiescent TG16 GSCs; assay type: cell-based, human; conditions: ATP Glo readout, 24 h treatment, read-out: Q TG16 GSCs EC50
Description: as §4, §6

proliferating OB1 GSCs = assay: ATP-Glo dose-response, proliferating OB1 GSCs; assay type: cell-based; conditions: Homo sapiens; ATP Glo readout, 24 h treatment; read-out: P OB1 GSCs EC50
Description: as §4, §6

quiescent OB1 GSCs = assay: ATP-Glo dose-response, quiescent OB1 GSCs; assay type: cell-based, human; conditions: ATP Glo readout, 24 h treatment, read-out: Q OB1 GSCs EC50
Description: as §4, §6

[5] = tested on: primary astrocytes (HA cells); assay: ATP-Glo dose-response, primary astrocytes; assay type: cell-based, human; conditions: ATP Glo readout, 24 h treatment
HEK 293 cells = assay: ATP-Glo dose-response, HEK 293 cells; assay type: cell-based, human; conditions: ATP Glo readout, 24 h treatment
Description: as §4, with “component. […]” for “component.”

quiescent TG1 GSCs [6] = conditions: primary screen, 50 μM, 24 h
Description: as §1, §2, §3

[7] = 24 h, SAR study, ATP-Glo cell survival assay, 24 h, triplicate, read-out: Proliferating TG1 GSCs EC50
[8] = 24 h, SAR study, ATP-Glo cell survival assay, 24 h, triplicate, read-out: Quiescent TG1 GSCs EC50
[9] = SAR study, ATP-Glo cell survival assay, 24 h, triplicate
[10] = 24 h, ATP Glo readout, 24 h treatment, n = 3, read-out: P TG1 GSCs EC50
[11] = 24 h, ATP Glo readout, 24 h treatment, n = 3, read-out: Q TG1 GSCs EC50

Molecule	EC50 [1]	Activity on proliferating TG1 GSCs (hit compounds reducing ATP levels) (proliferating TG1 GSCs [2])	EC50 (quiescent TG1 GSCs [4]; [8])	EC50 (proliferating TG1 GSCs [3]; [10])	EC50 (quiescent TG1 GSCs [4]; [11])	EC50 (proliferating TG16 GSCs; Homo sapiens)	EC50 (quiescent TG16 GSCs; Homo sapiens)	EC50 (proliferating OB1 GSCs)	EC50 (quiescent OB1 GSCs; Homo sapiens)	EC50 ([5]; Homo sapiens, Astrocyte)	EC50 (HEK 293 cells; Homo sapiens, HEK293)	Activity on quiescent TG1 GSCs (hit compounds reducing ATP levels) (quiescent TG1 GSCs [6])	also measured
COc1ccc(CCN2CCC(Nc3nc4ccccc4n3Cc3ccc(F)cc3)CC2)cc1 [Astemizole]	6.3 ± 0.2 µM	yes	–	–	–	–	–	–	–	–	–	–	–
Oc1ccc(C(c2ccccc2)c2ccc(O)cc2)cc1 [Compound 12, 4,4’-dihydroxyphenyl-phenyl-methane]	–	–	14.2 ± 8.8 µM	–	–	–	–	–	–	–	–	–	EC50 (proliferating TG1 GSCs [3]; [7]): 60.8 ± 10.4 µM; fold increase in EC50 (activity decrease) compared to DDPM (compound 2) (quiescent TG1 GSCs [4]): at least 10 fold
Oc1ccc(Cc2ccc(O)cc2)cc1 [Compound 13, Bis(4-hydroxyphenyl)methane]	–	–	–	–	–	–	–	–	–	–	–	–	Proliferating TG1 GSCs EC50 (proliferating TG1 GSCs [3]; [9]): No activity; Quiescent TG1 GSCs EC50 (quiescent TG1 GSCs [4]; [9]): No activity
CC(=O)Oc1ccc(C(c2ccc(OC(C)=O)cc2)c2cccc[n+]2C)cc1 [Compound 14, 2-(bis(4-acetoxyphenyl)methyl)-1-methylpyridinium iodide]	–	–	> 100 µM	–	–	–	–	–	–	–	–	–	EC50 (proliferating TG1 GSCs [3]; [7]): > 100 µM
Oc1ccc(C(c2ccc(O)cc2)c2cccnc2)cc1 [Compound 15, 4,4'-dihydroxyphenyl-3-pyridinyl-methane]	–	–	8 ± 3 µM	–	–	–	–	–	–	–	–	–	EC50 (proliferating TG1 GSCs [3]; [7]): > 100 µM; fold increase in EC50 (activity decrease) compared to DDPM (compound 2) (quiescent TG1 GSCs [4]): ~ 8 fold
Oc1ccc(C(c2ccncc2)c2ccc(O)cc2)cc1 [Compound 16, 4,4'-dihydroxyphenyl-4-pyridinyl-methane]	–	–	39 ± 2 µM	–	–	–	–	–	–	–	–	–	EC50 (proliferating TG1 GSCs [3]; [7]): > 100 µM; fold increase in EC50 (activity decrease) compared to DDPM (compound 2) (quiescent TG1 GSCs [4]): ~ 40 fold
Oc1ccc(C(c2ccc(O)cc2)c2cc(Br)ccn2)cc1 [Compound 18, 4,4'-dihydroxyphenyl-2-(4-bromopyridinyl)-methane]	–	–	0.36 ± 0.06 µM	–	–	–	–	–	–	–	–	–	Proliferating TG1 GSCs EC50 (proliferating TG1 GSCs [3]; [9]): No activity
CC(C)(C)OC(=O)NCCCCCCNC(=O)CCCC#Cc1cccc(C(c2ccc(O)cc2)c2ccc(O)cc2)n1 [Compound 19, tert-butyl(6-(6-(6-(bis(4-hydroxyphenyl)methyl)pyridin-2-yl)hex-5-ynamido)hexyl)carbamate]	–	–	3.84 µM	–	–	–	–	–	–	–	–	–	Proliferating TG1 GSCs EC50 (proliferating TG1 GSCs [3]; [9]): No activity
Cc1c2ccncc2c(C)c2c1[nH]c1ccccc12 [Ellipticine]	7 ± 2 µM	yes	–	13 ± 1 µM	19 ± 5 µM	13 ± 1 µM	56 ± 10 µM	8 ± 1 µM	30 ± 9 µM	5 ± 1 µM	13 ± 2 µM	yes	–
C=C(CC)C(=O)c1ccc(OCC(=O)O)c(Cl)c1Cl [Ethacrynic acid]	21 ± 11 µM	–	–	81 ± 11 µM	41 ± 11 µM	> 100 µM	12 ± 2 µM	60 ± 20 µM	24 ± 3 µM	> 100 µM	> 100 µM	yes	–
CCOC(=O)C1=C(C)NC(C)=C(C(=O)OC)C1c1cccc(Cl)c1Cl (stereo not drawn) [Felodipine]	59 ± 12 µM	yes	–	38 ± 1 µM	30 ± 3 µM	39 ± 4 µM	33 ± 3 µM	43 ± 5 µM	41 ± 6 µM	36 ± 6 µM	55 ± 2 µM	yes	–
CC(NCCC(c1ccccc1)c1ccccc1)c1ccccc1 (stereo not drawn) [Fendiline hydrochloride]	11 ± 1 µM	–	–	22 ± 1 µM	32 ± 1 µM	42 ± 1 µM	45 ± 16 µM	40 ± 13 µM	48 ± 9 µM	42 ± 8 µM	34 ± 9 µM	yes	–
CC[C@H](C)[C@H]1O[C@]2(CC[C@@H]1C)C[C@@H]1C[C@@H](C/C=C(\C)[C@@H](O[C@H]3C[C@H](OC)[C@@H](O[C@H]4C[C@H](OC)[C@@H](O)[C@H](C)O4)[C@H](C)O3)[C@@H](C)/C=C/C=C3\CO[C@@H]4[C@H](O)C(C)=C[C@@H](C(=O)O1)[C@]34O)O2 [Ivermectin]	4 ± 1 µM	yes	–	–	–	1.5 ± 0.2 µM	6 ± 2 µM	3 ± 1 µM	7 ± 2 µM	3 ± 1 µM	13 ± 1 µM	yes	EC50 (proliferating TG1 GSCs [3]; ATP Glo readout, 24 h treatment, n = 3, read-out: P TG1 GSCs EC50): 3 ± 1 µM; EC50 (quiescent TG1 GSCs [4]; ATP Glo readout, 24 h treatment, n = 3, read-out: Q TG1 GSCs EC50): 4 ± 1 µM
O=c1cc(-c2ccc(O)c(O)c2)oc2cc(O)cc(O)c12 [Luteolin, 3',4',5,7-tetrahydroxy-flavone]	70 ± 36 µM	–	–	> 100 µM	20 ± 2 µM	> 100 µM	34 ± 4 µM	> 100 µM	18 ± 4 µM	> 100 µM	> 100 µM	yes	–
C#C[C@]1(O)CC[C@H]2[C@@H]3CCC4=CCCC[C@@H]4[C@H]3CC[C@@]21C [Lynestrenol]	23 ± 5 µM	yes	–	36 ± 2 µM	43 ± 8 µM	32 ± 2 µM	28 ± 6 µM	26 ± 5 µM	56 ± 10 µM	20 ± 1 µM	57 ± 8 µM	–	–
CC(Cc1ccccc1)NCCC(c1ccccc1)c1ccccc1 (stereo not drawn) [Prenylamine lactate]	9 ± 2 µM	yes	–	22 ± 3 µM	27 ± 3 µM	32 ± 2 µM	42 ± 8 µM	30 ± 7 µM	49 ± 4 µM	30 ± 2 µM	25 ± 6 µM	yes	–
CC(=O)[C@H]1CC[C@H]2[C@@H]3CCC4=CC(=O)CC[C@]4(C)[C@H]3CC[C@]12C [Progesterone]	> 100 µM	–	–	> 100 µM	25 ± 11 µM	75 ± 6 µM	25 ± 9 µM	89 ± 29 µM	23 ± 11 µM	> 100 µM	36 ± 10 µM	yes	–
CCCCCCCCNC(C)C(O)c1ccc(SC(C)C)cc1 (stereo not drawn) [Suloctidil]	5 ± 1 µM	yes	–	11 ± 1 µM	13 ± 1 µM	13.5 ± 0.1 µM	14 ± 6 µM	15 ± 2 µM	20 ± 4 µM	11 ± 1 µM	10 ± 1 µM	yes	–
OCCN1CCN(CC/C=C2/c3ccccc3Sc3ccc(Cl)cc32)CC1 [Zuclopenthixol hydrochloride]	13 ± 1 µM	yes	–	20 ± 3 µM	52 ± 3 µM	29 ± 5 µM	48 ± 18 µM	27 ± 9 µM	> 100 µM	12 ± 1 µM	29 ± 1 µM	–	–
Beta-Escin	–	yes	–	–	–	–	–	–	–	–	–	yes	EC50 (proliferating TG16 GSCs): 6 ± 1 µM; EC50 (quiescent TG16 GSCs): 8 ± 1 µM; EC50 (quiescent OB1 GSCs): 6 ± 1 µM; EC50 [5]: 7 ± 1 µM; EC50 (HEK 293 cells): 31 ± 1 µM
